OC[C@H]1O[C@@H](Oc2ccc(O)cc2)[C@H](O)[C@@H](O)[C@@H]1O
solubility (mole fraction)
Conditions | 283.15 K | 288.15 K | 293.15 K | 298.15 K | 303.15 K | 308.15 K | 313.15 K | 318.15 K | 323.15 K
in 2-butanone | 0.000188 | 0.000212 | 0.000243 | 0.00026 | 0.000297 | 0.000346 | 0.000418 | 0.00045 | 0.000524
in acetone | 0.000686 | 0.00071 | 0.000773 | 0.000799 | 0.000867 | 0.00101 | 0.00118 | 0.00127 | 0.00143
in acetonitrile | 8.17e-05 | 9.3e-05 | 0.000124 | 0.000149 | 0.000163 | 0.000211 | 0.000236 | 0.000318 | 0.000362
in ethanol | 0.00263 | 0.00268 | 0.0029 | 0.00309 | 0.00353 | 0.00419 | 0.00477 | 0.00551 | 0.0059
in ethyl acetate | 8.03e-05 | 8.14e-05 | 8.6e-05 | 9.09e-05 | 9.62e-05 | 0.000104 | 0.000112 | 0.000124 | 0.000156
in ethylene glycol | 0.0471 | 0.0486 | 0.0507 | 0.0527 | 0.0549 | 0.0572 | 0.0601 | 0.0631 | 0.0666
in isobutanol | 0.000225 | 0.000279 | 0.000303 | 0.000394 | 0.000454 | 0.000572 | 0.000668 | 0.000911 | 0.00104
in isopropanol | 0.000727 | 0.000858 | 0.0009 | 0.00108 | 0.00125 | 0.0016 | 0.00191 | 0.00216 | 0.00261
in methanol | 0.0113 | 0.0117 | 0.0123 | 0.0132 | 0.0143 | 0.016 | 0.0176 | 0.0191 | 0.0221
in methyl acetate | 0.000112 | 0.000129 | 0.00014 | 0.000154 | 0.000185 | 0.000239 | 0.000277 | 0.000353 | 0.00041
in n-butanol | 0.000376 | 0.000499 | 0.000566 | 0.000699 | 0.00075 | 0.001 | 0.00115 | 0.00131 | 0.00144
in n-propanol | 0.000764 | 0.000889 | 0.00103 | 0.00115 | 0.00128 | 0.00155 | 0.00181 | 0.00207 | 0.0023

— BigSolDB 2.1
